{"source": "patent US20260042755A1", "about": "“GPR6 INVERSE AGONISTS” (MapLight Therapeutics, Inc., priority 2022, published 2026)", "key": {"[1]": {"molecular_target": "T1, GPR3 (Homo sapiens, UniProt P46089)", "T1 construct": "expressed in transfected cells; host or cells: CHO cells", "T1 sequence (P46089 whole entry, species assumed)": "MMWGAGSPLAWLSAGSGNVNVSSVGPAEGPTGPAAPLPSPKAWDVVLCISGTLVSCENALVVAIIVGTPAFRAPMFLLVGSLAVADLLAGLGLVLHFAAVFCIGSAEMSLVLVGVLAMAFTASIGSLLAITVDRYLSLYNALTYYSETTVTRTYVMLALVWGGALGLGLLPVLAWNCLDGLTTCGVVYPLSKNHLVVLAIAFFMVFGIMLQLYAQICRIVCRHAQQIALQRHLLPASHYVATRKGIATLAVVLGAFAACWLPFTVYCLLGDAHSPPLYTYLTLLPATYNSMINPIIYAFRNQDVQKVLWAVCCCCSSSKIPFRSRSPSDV", "assay": "GPR3 antagonist functional cAMP assay (LANCE Ultra cAMP TR-FRET, CHO cells stably expressing GPR3)", "format": "cell-based", "description": "(§1) Example 56. GPR6 and GPR3 Antagonist Functional cAMP Assay\n(§2) CHO cells stably expressing GPR6 or GPR3 receptors were dissociated from cell culture flasks and incubated for 2 h at 37° C. in a 10 cm dish in a humidified incubator. Cells were dissociated, counted to have 1e6 cells/mL (4.5e6 cells needed/384-well plate), washed once in starved media, than in D-PBS and finally suspended in assay buffer (Krebs-Ringer Bicarbonate Buffer with 1800 mg/L glucose, without calcium chloride and sodium bicarbonate (Sigma) in the presence of 0.1% BSA and 150 μM of Ro 20-1724 Phosphodiesterase inhibitor).\n(§3) Cells in suspension from above were plated in 384-well white Optiplate (PerkinElmer) at 10,000 cells/well/10 μl, briefly centrifuged prior direct addition of compounds ([…]) in 10 mM DMSO using a Tecan D300e Digital Dispenser, final DMSO in each well was normalized to 0.1%. Cells were incubated in the presence of compounds for 45 min at 37° C. in a humidified incubator.\n(§4) To measure cAMP levels, LANCE® Ultra cAMP assay (Perkin Elmer), a homogeneous time-resolved fluorescence resonance energy transfer (TR-FRET) immunoassay was used following manufacturer's recommendations. Plates were shaken for 1 h at room temperature before reading on a Tecan InfiniteF200Pro multi-mode plate reader using standard FRET settings (Excitation 340 nm, Emission at 615 nm). FRET values were reported as readings obtained at 665 nm. Data were normalized to DMSO (0.1%) and reference compounds (100%) and fit to a 4-parameter logistical fit to generate antagonist IC50s."}, "[2]": {"molecular_target": "T2, GPR6 (Homo sapiens, UniProt P46095)", "T2 construct": "expressed in transfected cells; host or cells: CHO cells", "T2 sequence (P46095 whole entry)": "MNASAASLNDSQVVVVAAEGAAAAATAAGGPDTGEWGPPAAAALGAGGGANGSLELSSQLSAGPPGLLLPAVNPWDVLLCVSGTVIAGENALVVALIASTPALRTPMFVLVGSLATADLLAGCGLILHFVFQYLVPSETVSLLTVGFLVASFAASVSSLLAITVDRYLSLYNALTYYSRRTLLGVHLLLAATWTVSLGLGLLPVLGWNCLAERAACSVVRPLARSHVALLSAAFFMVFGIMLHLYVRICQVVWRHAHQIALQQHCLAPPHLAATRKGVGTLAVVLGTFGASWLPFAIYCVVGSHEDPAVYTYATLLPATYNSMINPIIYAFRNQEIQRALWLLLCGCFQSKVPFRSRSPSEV", "assay": "GPR6 antagonist functional cAMP assay (LANCE Ultra cAMP TR-FRET, CHO cells stably expressing GPR6)", "format": "cell-based", "description": "as §1, §2, §3, §4"}, "[3]": {"conditions": "CHO cells stably expressing GPR3, cAMP assay (Example 24)"}, "[4]": {"conditions": "CHO cells stably expressing GPR6, cAMP assay (Example 24)"}}, "data": [{"smiles": "CN1CC(c2cc3nc(N4CCC(Oc5ccc(F)cc5F)CC4)c(-c4cnn(C)c4)nc3cn2)OC1=O", "note": "(centres unmarked) [Compound 482, 5-(2-(4-(2,4-difluorophenoxy)piperidin-1-yl)-3-(1-methyl-1H-pyrazol-4-yl)pyrido[3,4-b]pyrazin-7-yl)-3-methyloxazolidin-2-one]", "values": [{"measurement": "IC50", "setting": "[1]; [3]", "result": "1000 to 30000", "unit": "nM"}, {"measurement": "IC50", "setting": "[2]; [4]", "result": "100 to 1000", "unit": "nM"}]}, {"smiles": "Cn1cc(-c2nc3cnc(C[C@@H](O)CO)cc3nc2N2CCC(Oc3ccc(F)cc3F)CC2)cn1", "note": "(single isomer, unassigned) [Compound 415]", "values": [{"measurement": "IC50", "setting": "[1]; [3]", "result": "1000 to 30000", "unit": "nM"}, {"measurement": "IC50", "setting": "[2]; [4]", "result": "100 to 1000", "unit": "nM"}]}, {"smiles": "CC(=O)N1CCc2nc(N3CCC(Oc4cc(F)cc(F)c4)CC3)c(-c3cnn(C)c3)nc2C1", "note": "[Compound 431, 1-{2-[4-(3,5-difluorophenoxy)piperidin-1-yl]-3-(1-methyl-1H-pyrazol-4-yl)-5H,6H,7H,8H-pyrido[3,4-b]pyrazin-6-yl}ethan-1-one]", "values": [{"measurement": "IC50", "setting": "[1]; [3]", "result": "1000 to 30000", "unit": "nM"}, {"measurement": "IC50", "setting": "[2]; [4]", "result": "1000 to 30000", "unit": "nM"}]}, {"smiles": "COCCOc1cc2nc(N3CCC(Oc4ccc(F)cc4F)CC3)c(-c3cnn(C)c3)nc2cn1", "note": "[Compound 381, 4-(2,4-difluorophenoxy)-1-[7-(2-methoxyethoxy)-3-(1-methyl-1H-pyrazol-4-yl)pyrido[3,4-b]pyrazin-2-yl]piperidine]", "values": [{"measurement": "IC50", "setting": "[1]; [3]", "result": "1000 to 30000", "unit": "nM"}, {"measurement": "IC50", "setting": "[2]; [4]", "result": "100 to 1000", "unit": "nM"}]}, {"smiles": "CC(C)(O)C(O)c1cc2nc(-c3cnn(C(F)F)c3)c(N3CCN(Cc4ccccc4F)CC3)nc2cn1", "note": "(single isomer, unassigned) [Compound 668, 1-{2-[1-(difluoromethyl)-4-pyrazolyl]-3-{4-[(o-fluorophenyl)methyl]-1-piperazinyl}-1,4,6-triaza-7-naphthyl}-2-methyl-1,2-propanediol]", "values": [{"measurement": "IC50", "setting": "[1]; procedure of Example 24", "result": "1000 to 30000", "unit": "nM"}, {"measurement": "IC50", "setting": "[2]; procedure of Example 24", "result": "< 100", "unit": "nM"}]}, {"smiles": "CC(=O)N1CCc2nc(N3CCC(Oc4ccc(F)cc4F)CC3)c(-c3cccc(N4CCCC4)n3)nc2C1", "note": "[Compound 101, 1-{2-[4-(2,4-difluorophenoxy)piperidin-1-yl]-3-[6-(pyrrolidin-1-yl)pyridin-2-yl]-5H,6H,7H,8H-pyrido[3,4-b]pyrazin-6-yl}ethan-1-one]", "values": [{"measurement": "IC50", "setting": "[1]; [3]", "result": "1000 to 30000", "unit": "nM"}, {"measurement": "IC50", "setting": "[2]; [4]", "result": "1000 to 30000", "unit": "nM"}]}, {"smiles": "Cn1cc(-c2nc3c(nc2N2CC[C@H](Oc4ccc(F)cc4F)[C@H](F)C2)CCN(Cc2ccccc2)C3)cn1", "note": "(single isomer, unassigned) [Compound 333]", "values": [{"measurement": "IC50", "setting": "[1]; procedure of Example 24", "result": "≥ 30000", "unit": "nM"}, {"measurement": "IC50", "setting": "[2]; procedure of Example 24", "result": "1000 to 30000", "unit": "nM"}]}, {"smiles": "O=c1cccc(-c2nc3ccncc3nc2N2CCC(Oc3ccc(F)cc3F)CC2)[nH]1", "note": "[Compound 99, 6-{3-[4-(2,4-difluorophenoxy)piperidin-1-yl]pyrido[3,4-b]pyrazin-2-yl}-1,2-dihydropyridin-2-one]", "values": [{"measurement": "IC50", "setting": "[1]; [3]", "result": "1000 to 30000", "unit": "nM"}, {"measurement": "IC50", "setting": "[2]; [4]", "result": "1000 to 30000", "unit": "nM"}]}, {"smiles": "CC(=O)N1CCc2nc(N3CCC(Oc4ccc(F)cc4F)CC3)c(C3CCS(=O)(=O)CC3)nc2C1", "note": "[Compound 218, 4-{6-acetyl-2-[4-(2,4-difluorophenoxy)piperidin-1-yl]-5H,6H,7H,8H-pyrido[3,4-b]pyrazin-3-yl}-1λ^6-thiane-1,1-dione]", "values": [{"measurement": "IC50", "setting": "[1]; [3]", "result": "1000 to 30000", "unit": "nM"}, {"measurement": "IC50", "setting": "[2]; [4]", "result": "1000 to 30000", "unit": "nM"}]}, {"smiles": "COC[C@](C)(O)c1cc2nc(N3CCC(Oc4ccc(F)cc4F)CC3)c(-c3cnn(C)c3)nc2cn1", "note": "(single isomer, unassigned) [Compound 614]", "values": [{"measurement": "IC50", "setting": "[1]; procedure of Example 24", "result": "1000 to 30000", "unit": "nM"}, {"measurement": "IC50", "setting": "[2]; procedure of Example 24", "result": "100 to 1000", "unit": "nM"}]}, {"smiles": "CC(C)(O)[C@](C)(O)c1cc2nc(N3CCN(Cc4ccc(F)cc4F)CC3)c(-c3cnn(CF)c3)nc2cn1", "note": "(single isomer, unassigned) [Compound 649]", "values": [{"measurement": "IC50", "setting": "[1]; procedure of Example 24", "result": "1000 to 30000", "unit": "nM"}, {"measurement": "IC50", "setting": "[2]; procedure of Example 24", "result": "100 to 1000", "unit": "nM"}]}, {"smiles": "Cn1cc(-c2nc3cc(Cl)ncc3nc2N2CCN(Cc3ccc(F)cc3F)CC2)cn1", "note": "[Compound 227, 1-[7-chloro-2-(1-methyl-1H-pyrazol-4-yl)pyrido[3,4-b]pyrazin-3-yl]-4-[(2,4-difluorophenyl)methyl] piperazine]", "values": [{"measurement": "IC50", "setting": "[1]; [3]", "result": "1000 to 30000", "unit": "nM"}, {"measurement": "IC50", "setting": "[2]; [4]", "result": "100 to 1000", "unit": "nM"}]}, {"smiles": "CC(C)(O)C(C)(O)c1cc2nc(-c3cnn(C4CC4)c3)c(N3CCC(Oc4ccc(F)cc4F)CC3)nc2cn1", "note": "(single isomer, unassigned) [Compound 722]", "values": [{"measurement": "IC50", "setting": "[1]; procedure of Example 24", "result": "1000 to 30000", "unit": "nM"}, {"measurement": "IC50", "setting": "[2]; procedure of Example 24", "result": "100 to 1000", "unit": "nM"}]}]}
